In patent US4101647A, “Oral dosage form for X-ray contrast media containing a pharmaceutically acceptable base and method of use thereof” (Schering Aktiengesellschaft, priority 1975, dated 1978):

Tests used:
[1] = Blood levels of contrast medium of four patient groups after oral administration (3 g, microcrystal suspension) with various additional treatments; details: sodium bicarbonate given orally with the contrast agent
Experimental: Suspension with Various Additional Treatments
III = 10 mg. of Metoclopramide i.v.; and
IV = g. of Sodium Bicarbonate)

[2] = clinical; details: human, in vivo, po
[3] = human, in vivo

Row | Compound | effect of simultaneous oral administration on resorption of the contrast agent [1] | half-life [2] [h] | Cmax ([2]; Cmax (maximum concentration in blood)) [µg/mL] | Tmax ([2]; time after administration at which the maximum blood level is attained) [h] | resorption half life [3] [h] | blood level within 30 minutes after ingestion, on the average, as % of the maximum value ([3]; 30 min) [%] | Cmax (% of dose in total blood volume) ([3]; po) | tmax (time of maximum blood level) ([3]; po) [h]
1 | O=C(O)O [sodium bicarbonate] | accelerates resorption of the contrast agent in a statistically significant manner | – | – | – | – | – | – | –
2 | CCN(C(=O)CCC(=O)O)c1c(I)cc(I)c(NC)c1I [succinic acid mono-2,4,6-triiodo-3-methylamino-N-ethylanilide] | – | 2.3 ± 1.4 | 114 ± 45 | ≤ 0.9 | 0.3 ± 0.1 | 80 | 23 ± 8 % of Dose in Bl. Vol. | 2.2 ± 0.4
